Data taken from patent US7781451B2, “Thiazolopyridine derivatives, pharmaceut ical conditions containing them and methods of treating glucokinase mediated conditions” (Novartis AG, priority 2004, dated 2010).

Assays:
[1] = target: T1, recombinant GST-GK (Homo sapiens, UniProt P35557); assay: in vitro assay measuring the activation of recombinant GST-GK; type: biochemical; conditions: thioNADH-coupled assay read at 405 nm
T1 sequence (P35557 1-465): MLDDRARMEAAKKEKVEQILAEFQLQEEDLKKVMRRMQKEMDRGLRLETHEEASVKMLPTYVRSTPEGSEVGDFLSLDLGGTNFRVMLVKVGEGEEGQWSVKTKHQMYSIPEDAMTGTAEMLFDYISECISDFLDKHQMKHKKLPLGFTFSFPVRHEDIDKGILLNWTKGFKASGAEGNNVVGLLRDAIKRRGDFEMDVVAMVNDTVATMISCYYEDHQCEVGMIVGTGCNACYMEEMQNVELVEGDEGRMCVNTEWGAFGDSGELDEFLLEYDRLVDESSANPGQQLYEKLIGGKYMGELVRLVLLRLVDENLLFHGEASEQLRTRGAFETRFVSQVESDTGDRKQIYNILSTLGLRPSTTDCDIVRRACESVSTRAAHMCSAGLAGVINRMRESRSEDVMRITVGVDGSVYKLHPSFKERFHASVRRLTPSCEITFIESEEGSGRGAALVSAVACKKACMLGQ
Excerpt: The glucokinase activation in vitro may be determined by measuring the activation of recombinant GST-GK by a compound of the present invention in the absence or the presence of GKRP, a 68,000 Da protein inhibitor of GK. In these assays, formation of glucose-6-phosphate is coupled directly to the formation of thioNADH. GST-GK catalyzes the reaction of glucose and Mg-ATP to produce glucose-6-phosphate and ADP. Glucose-6-phosphate dehydrogenase (G6PDH) reduces thionicotinamide (thioNAD) to thioNADH. The assay measures the formation of […] at 405 nM.
The basic GK assay components are as follows: 25 mM HEPES (pH 7.1), 25 mM KCl, 2.5 mM MgCl2, 1 mM ATP (Sigma A-5394), 1 mM DTT, 1 mM thioNAD (Sigma T-7375), 80 units/mL G6PDH (Sigma G-5885), 10 mM glucose and […] GST-GK (110 nM). For assessing reversal of GK inhibition by GKRP, 20 μM Fructose-1-phosphate ([…]) and 25 μg/mL of recombinant GKRP (370 nM) are added to these assay components. F-1-P at 1 μM is used as a control in the GK/GKRP assay. F-1-P reverses inhibition of GST-GK by GKRP.
The assay is done in standard, 96-well, round-bottom plates and the total assay volume is 25 μL. […] The plates are then delivered via the Zymark XP arm to a Thermomax plate reader and read kinetically over three min at 405 nM at RT. Units are expressed as milli-optical density per minute (mOD/min).

melting point | EC50 [1] | Structure (SMILES)
67 to 71 °C | – | COc1ccc2nc(NC(=O)C(CC3CCCC3)c3ccc(S(=O)(=O)CC(C)=O)cc3)sc2n1 (stereo not shown) [Example 2, 3-Cyclopentyl-N-(5-methoxy-thiazolo[5,4-b]pyridin-2-yl)-2-[4-(2-oxo-propane-1-sulfonyl)-phenyl]-propionamide]
169 to 172 °C | – | COc1ccc2nc(NC(=O)C(CC3CCCC3)c3ccc(S(=O)(=O)CCc4ccccc4)cc3)sc2n1 (stereo not shown) [Example 3, 3-Cyclopentyl-N-(5-methoxy-thiazolo[5,4-b]pyridin-2-yl)-2-[4-(2-phenyl-ethanesulfonyl)-phenyl]-propionamide]
158 to 160 °C | ~106 nM | CCOCS(=O)(=O)c1ccc(C(CC2CCCC2)C(=O)Nc2nc3ccc(OC)nc3s2)cc1 (stereo not shown) [Example 1, 3-Cyclopentyl-2-(4-ethoxymethanesulfonyl-phenyl)-N-(5-methoxy-thiazolo[5,4-b]pyridin-2-yl)-propionamide]
